Measured values as given in patent US10004718B2, “Erythropoietin expression promoter” (TOHOKU UNIVERSITY, priority 2012, dated 2018).

Key:
[1] = test system: ATP production in Hep3B cells; test: ATP production in Hep3B cells; assay type: cell-based, human; conditions: for amount of ATP produced (FIG. 8): compound 10 μM, 24 hours, ratio to DMSO = 1; for increase of ATP concentration in cells relative to the normal level: at least in 3 hours
Description: The Hep3B cells were seeded at 1×10^4 cells/well to a 24-well cell culture plate and then cultured under normal oxygen (20% O2) for 24 hours. Each of 36 types of compounds (compounds #1 to 15, 17 to 31, and 34 to 39) was mixed at a concentration of 10 μM into RPMI1640 common medium 1. After further culture under normal oxygen (20% […]) for 3 hours, 6 hours, or 24 hours, the concentration of ATP produced in the medium was measured using ATP Assay Reagent of “Cells” (manufactured by Toyo B-Net Co., Ltd.) and GloMa 96 Microplate Luminometer (manufactured by Promega K.K.). Hep3B cells cultured in the absence of the compound (DMSO added [1%]) (“DMSO” of FIGS. 6 to 8) were used as a negative control. Hep3B cells cultured in the presence of HIF activators (FG-4592 [10 μM], DMOG [10 μM], 3,4-DHB [10 μM], and ciclopirox[10 μM]) (“FG”, “DMOG”, “34-DHB”, and “Ciclo”, respectively, of FIGS. 6 to 8) and Hep3B cells cultured in the presence of a transcriptional repressor GATA-specific inhibitor of erythropoietin (K7174 [10 μM]) (“K7174” of FIGS. 6 to 8) were used as positive controls.

[2] = test system: mRNA expression of the erythropoietin gene; test: Quantitative PCR of erythropoietin mRNA in Hep3B cells; assay type: cell-based, human; conditions: compound 10 μM, 20% O2, GAPDH internal standard
Description: Of the 5 types of compounds confirmed in Example 4 to be effective for promoting the transcriptional activity of the erythropoietin gene promoter, 4 types of compounds (compounds #2, 4, 5, and 21) were selected. From Hep3B cells cultured in RPMI1640 common medium 1 supplemented with each of these 4 types of compounds at a concentration of 10 μM, total RNA was extracted using TriPure Isolation Reagent (manufactured by F. Hoffmann La Roche AG) in a 6-well cell culture plate. Hep3B cells cultured in the absence of the compound (DMSO added) (“20% O2/DMSO” of FIG. 4) were used as a negative control. Hep3B cells cultured in the presence of a GATA-specific inhibitor (K7174 [10 μM]) (“20% O2/K7174” of FIG. 4) and Hep3B cells cultured under hypoxia (1% O2) conditions and in the absence of the compound (DMSO added [1%]) (“1% O2/DMSO” of FIG. 4) were used as positive controls.
The extracted RNA was used as a template to synthesize cDNA using SuperScript III RTS First-strand kit (manufactured by Invitrogen Corp.). Then, the expression of the erythropoietin mRNA was measured by quantitative PCR with GAPDH as an internal standard. The quantitative PCR was carried out using TaqMan® Gene Expression Assays (using GAPDH; Assay ID: Rn99999916_s1, and human erythropoietin; Assay ID: Hs00171267_ml TaqMan® probes [manufactured by Applied Biosystems Inc.]) and Step One Plus Real-Time PCR System (manufactured by Applied Biosystems Inc.).

[3] = test system: mouse erythropoietin gene promoter; test: Luciferase reporter assay of erythropoietin gene promoter in Hep3B cells; assay type: cell-based; conditions: for effect on erythropoietin gene promoter transcriptional activity compared with HIF activator FG-4592: compound 10 μM vs FG-4592 10 μM, 20% O2; for transcription level of the erythropoietin gene promoter: compound 10 μM, 20% O2, 48 hours, vs 20% O2/DMSO
Description: A plasmid vector HE-mPro-luc for luciferase assay on the promoter activity of the 5′ upstream transcriptional regulatory region of the mouse erythropoietin gene was prepared by cleaving, with restriction enzymes XbaI and SacI, a region having a length from −571 to +53 bp starting at the translation initiation site of exon 1 of the mouse erythropoietin gene, and inserting this region to a luciferase reporter vector pXP2 (Nordeen S K. BioTechniques. 6: […], 1988).
The Hep3B cells were adjusted to 10×10^4 cells/well in a 24-well cell culture plate and subcultured. Under microscopy, the Hep3B cells that reached a cell density of 70 to 80% were transfected with the plasmid DNA for luciferase reporter assay. The composition of a solution for transfection was prepared by mixing 2 μg of HE-mPro-luc, 50 ng of pRh-TK (manufactured by Promega K.K.), and 2 μl of Lipofectamine 2000 (manufactured by Invitrogen Corp.) with 100 μl of OptiMEM-I (manufactured by Life Technologies, Inc./GIBCO) per well, followed by incubation at room temperature for 20 minutes. The solution was added to the Hep3B cells in the 24-well cell culture plate preincubated in 0.5 ml of serum-free OptiMEM-I medium, and then incubated for 4 hours without serum and antibiotics under conditions of 37° C. and 5% CO2/20% O2. Then, the medium was replaced with RPMI1640 common medium 1 supplemented with each of 5 types of compounds (compounds #2, 4, 5, 18, and 21) at a concentration of 10 μM, followed by further incubation for 48 hours under conditions of 37° C. and 5% CO2/20% O2. Then, the medium was replaced with 0.5 ml of serum-free PBS, and the cells were gently washed, followed by the removal of PBS by suction. This operation was carried out twice. Then, 100 μl of passive lysis buffer (manufactured by Promega K.K.) was added thereto, and the cells were lysed by mixing at room temperature for 20 minutes. Hep3B cells cultured in the absence of the compound (DMSO added [1%]) (“20% O2/DMSO” of FIG. 3) were used as a negative control. Hep3B cells cultured in the presence of an HIF activator (FG-4592 [10 μM]) (“20% O2/FG4592” of FIG. 3) and Hep3B cells cultured under hypoxia (1% O2) conditions and in the absence of the compound (DMSO added [1%]) (“1% O2/DMSO” of FIG. 3) were used as positive controls.
Dual Luciferase Reporter Assay System (manufactured by Promega K.K.) was used in the luciferase reporter assay. The amounts of firefly and Renilla luciferases were measured using a luminometer Lumat LB9507 (manufactured by BERTHOLD TECHNOLOGIES GmbH & Co. KG). The amount of Fire fly luciferase was divided by the amount of Renilla luciferase to calculate the transcriptional activity of the erythropoietin gene.

Leigh cells = test: Cell death caused by oxidative stress (BSO) in Leigh syndrome patient fibroblasts; assay type: cell-based, human; conditions: compound 10 μM, 4 days after BSO treatment
Description: In Examples 2 to 7 and Reference Example 1 below, an erythropoietin-producing human hepatocellular carcinoma cell Hep3B (obtained from ATCC [American Type Culture Collection]) was cultured and maintained under conditions of 5% CO2/20% O2 and 37° C. in an RPMI1640 (manufactured by Life Technologies, Inc./GIBCO) medium containing 100 U/mL penicillin (manufactured by Life Technologies, Inc./GIBCO), 100 μg/mL streptomycin (manufactured by Life Technologies, Inc./GIBCO), and 10% fetal bovine serum (FBS) (manufactured by Life Technologies, Inc./GIBCO) (hereinafter, referred to as “RPMI1640 common medium 1”). In Example 15 below, Leigh syndrome patients were subjected to skin biopsy to obtain skin fibroblast cells, which were then primarily cultured under conditions of 5% CO2/20% O2 and 37° C. in a DMEM low glucose (manufactured by Life Technologies, Inc./GIBCO) medium containing 100 U/mL penicillin (manufactured by Life Technologies, Inc./GIBCO), 100 μg/mL streptomycin (manufactured by Life Technologies, Inc./GIBCO), and 1% FBS (manufactured by Life Technologies, Inc./GIBCO) (hereinafter, referred to as “DMEM low glucose common medium”) to isolate cells (Leigh cells). In Example 13 below, a human kidney-derived cell line HK-2 (obtained from ATCC) was cultured and maintained under conditions of 5% CO2/20% O2 and 37° C. in a DMEM/F12 (manufactured by Life Technologies, Inc./GIBCO) medium containing 100 U/mL penicillin (manufactured by Life Technologies, Inc./GIBCO), 100 μg/mL streptomycin (manufactured by Life Technologies, Inc./GIBCO), and 10% fetal bovine serum (manufactured by Life Technologies, Inc./GIBCO) (hereinafter, referred to as “DMEM/F12 common medium”). In Example 14 below, a rat islet of Langerhans-derived cell line ISN-1e (kindly provided by Hisamitsu Ishihara, Nihon University School of Medicine) was cultured and maintained under conditions of 5% CO2/20% O2 and 37° C. in an RPMI1640 (manufactured by Life Technologies, Inc./GIBCO) medium containing 10 mM HEPES (manufactured by Sigma-Aldrich Corp.), 2 mM glutamine (manufactured by Sigma-Aldrich Corp.), 50 μM β-mercaptoethanol (manufactured by Sigma-Aldrich Corp.), 100 U/mL penicillin (manufactured by Life Technologies, Inc./GIBCO), 100 μg/mL streptomycin (manufactured by Life Technologies, Inc./GIBCO), and 10% FBS (manufactured by Life Technologies, Inc./GIBCO) (hereinafter, referred to as “RPMI1640 common medium 2”).
The Leigh cells were seeded at 4×10^4 cells/well to a 24-well cell culture plate and then cultured for 24 hours. The glutathione synthesis inhibitor BSO (L-buthionine sulphoximine) (manufactured by Sigma-Aldrich Corp.) was mixed at […] into a medium. After culture for 24 hours in the presence of BSO, each of 5 types of compounds (compounds #2, 4, 5, 21, and 35) was mixed at 10 μM into the medium. After culture for 4 days in the presence of these 5 types of compounds, the number of live cells was measured using Cell Counting Kit-8 (manufactured by Dojindo Laboratories) to calculate the survival rate of the cells (“BSO+#2”, “BSO+#4”, “BSO+#5”, “BSO+#21”, and “BSO+#35” of FIG. 17). […]

| Compound | melting point | amount of ATP produced (FIG. 8) [1] | other results |
| --- | --- | --- | --- |
| CCCCOc1ccc2[nH]cc(CC(=O)O)c2c1 [compound #39, 5-(1-Butoxy)-3-indoleacetic acid] | 137.8 to 141.1 °C |  |  |
| CCOc1ccc2[nH]cc(CC(=O)O)c2c1 [compound #37, 5-Ethoxy-3-indoleacetic acid] | 86 to 92.7 °C |  |  |
| CCCn1cc(C(CC(=O)c2ccc(C)cc2C)C(=O)O)c2ccccc21 (stereo not shown) [compound #6, 4-(2,4-Dimethylphenyl)-2-(1-propyl-1H-indol-3-yl)-4-oxo-butanoic acid] | 139 to 141 °C |  |  |
| CCn1cc(CC(=O)O)c2ccccc21 [compound #27, N-Ethyl-3-indoleacetic acid] |  | enhance the amount of ATP produced |  |
| COc1ccc2[nH]cc(CC(=O)O)c2c1 [compound #36, 5-Methoxy-3-indoleacetic acid] |  |  | increase of ATP concentration in cells relative to the normal level [1]: two or more times the normal level |
| CCCCCCn1cc(CC(=O)O)c2ccccc21 [compound #30, N-Hexyl-3-indoleacetic acid] |  | enhance the amount of ATP produced |  |
| CCCCn1cc(CC(=O)O)c2ccccc21 [compound #29, N-Butyl-3-indoleacetic acid] |  | enhance the amount of ATP produced |  |
| CCCCOc1ccc2cccc(CC(=O)O)c2c1 [compound #33, α-(7-Butoxy-1-naphthalenyl)-acetic acid] | 102 to 104 °C |  |  |
| CCCCCOc1ccc2cccc(CC(=O)O)c2c1 [compound #34, α-(7-Pentoxy-1-naphthalenyl)-acetic acid] | 104 to 106 °C |  | increase of ATP concentration in cells relative to the normal level [1]: two or more times the normal level |
| O=C(CC(C(=O)O)c1c[nH]c2ccccc12)c1ccccc1 (stereo not shown) [compound #20, 4-Phenyl-2-(1H-indol-3-yl)-4-oxo-butanoic acid] | 149 to 150 °C |  |  |
| CCCOc1ccc2[nH]cc(CC(=O)O)c2c1 [compound #38, 5-(1-Propoxy)-3-indoleacetic acid] | 133.6 to 136.8 °C | enhance the amount of ATP produced |  |
| O=C(CC(C(=O)O)c1c[nH]c2ccccc12)c1ccc(Cl)cc1 (stereo not shown) [compound #2, 4-(4-Chlorophenyl)-2-(1H-indol-3-yl)-4-oxo-butanoic acid] |  |  | mRNA expression level of the erythropoietin gene [2]: increase the mRNA expression level; effect on erythropoietin gene promoter transcriptional activity compared with HIF activator FG-4592 [3]: superior to the effect of the existing HIF activator (FG-4592); transcription level of the erythropoietin gene promoter [3]: increase the transcription level; cell death of the Leigh cells by BSO (Leigh cells): efficiently suppress the cell death |
| CCC(C)CCC(C(=O)O)c1c[nH]c2ccccc12 (stereo not drawn) [compound #18, α-(3-Methyl-1-pentyl)-3-indoleacetic acid] |  |  | effect on erythropoietin gene promoter transcriptional activity compared with HIF activator FG-4592 [3]: superior to the effect of the existing HIF activator (FG-4592); transcription level of the erythropoietin gene promoter [3]: increase the transcription level |
